Results taken from patent publication US12050224B2, “Compounds useful as near-infrared fluorescent probes selectively binding to tau aggregates and method of preparing the same” (KOREA INSTITUTE OF SCIENCE AND TECHNOLOGY, priority 2020, dated 2024).

Experiments:
[1] = Measurement of absorbance and fluorescence of synthesized compound in ethanol; type: physicochemical; conditions: 10 μM in ethanol; for λem: Maximum emission wavelength / λex: Maximum excitation wavelength: average of three measurements; for Stokes shift: difference between excitation and emission
Experimental: In order to investigate the optical properties of the newly synthesized compound in the present invention, the absorbance was measured using a V-730 UV-visible spectrophotometer manufactured by JASCO, and fluorescence was measured using a FlexStation 3 multi-mode microplate reader manufactured by Molecular Devices. Absorbance and fluorescence were measured three times at a concentration of 10 μM in ethanol, and the average thereof is shown in Table 1 below. At this time, T807 (AV-1451) as a Tau positron-emission-tomography (PET) tracer and Thioflavin S, which are commercially available to detect tau production in vivo, were used as a control group.

[2] = target: T1, tau aggregates (Tau-K18 protein) (Homo sapiens, UniProt P10636); assay: In vitro binding assay (fluorescence labeling ability) to tau aggregates; conditions: for SIaβ: selectivity index = fluorescence intensity of probe bound to Tau aggregate / bound to Aβ aggregate / SItaumono: selectivity index, tau aggregate versus tau monomer / FItau: fold increase = fluorescence intensity of probe bound to tau aggregate / probe (free): compound 10 μM; for FItau: fold increase = fluorescence intensity of probe bound to tau aggregate / probe (free): PBS, 30 min incubation; for selectivity for tau aggregates over amyloid aggregates: in vitro screening as fluorescent probes
T1 construct: aggregation of Tau-K18 protein (0.5 mg/ml in PBS) purified and isolated from E. coli; made in house; host or cells: E. coli
Experimental: (§1) Experimental Example 2-1: Tau and amyloid beta aggregation induction For amyloid aggregation induction, the synthesized Abeta40 (Amyloid Beta 40) peptide was dissolved in PBS at a concentration of 0.5 mg/ml to induce aggregation for 7 days at 37° C. and 200 rpm with shaking. To induce aggregation of tau proteins, aggregation of Tau-K18 protein (0.5 mg/ml in PBS) purified and isolated from E. coli with heparin (0.1 mg/ml) and DTT (100 μM) was induced at 37° C. and 200 rpm for 7 days under shaking conditions. […] At this time, thioflavin S (Th S), which is known to bind to beta-sheet structures such as tau and amyloid aggregates, was used as a control group (Ex: 430 nm, Em: 480-610 nm). Specifically, in order to determine the labeling ability of newly synthesized compounds to tau aggregate proteins, a 25 μl dilution of a 10 μM labeling substance in PBS and 25 id of a 0.125 mg/ml tau or amyloid pre-aggregate or aggregate diluted in PBS were each incubated for 30 minutes, and then a fluorescence spectrum reaction was measured using a spectrophotometer. Selectivity analysis for tau aggregates and amyloid beta aggregates of the novel synthetic compounds of the present invention was performed as described above, and the resulting in vitro fluorescence changes are summarized in Table 2 and FIG. 1 below.

[3] = target: T2, amyloid beta aggregates (Abeta40) (Homo sapiens, UniProt P05067); assay: In vitro binding assay (fluorescence labeling ability) to amyloid beta aggregates; conditions: compound 10 μM, PBS, 30 min incubation
T2 construct: the synthesized Abeta40 (Amyloid Beta 40) peptide was dissolved in PBS; host or cells: synthetic peptide
Experimental: as §1

[4] = target: bovine serum albumin (BSA) (Bos taurus, UniProt P02769); assay: Measurement of non-specific binding using BSA; conditions: for FIBSA: fold increase = fluorescence intensity of probe bound to BSA / probe (free): compound 10 μM, 0.25 mg/ml BSA, 30 min incubation
Experimental: In order to exclude non-specific binding of the compound to serum, reactivity between the compound and bovine serum albumin (BSA) was further tested. 25 μl of a 10 μM compound was incubated along with 25 μl of 0.25 mg/ml BSA for 30 minutes, and then the fluorescence spectrum reaction was measured using a spectrophotometer. The BSA response was conducted to identify non-selective binding to other proteins in the blood when applied to patients as an imaging agent.

T1 sequence (P10636 561-685 limits assumed): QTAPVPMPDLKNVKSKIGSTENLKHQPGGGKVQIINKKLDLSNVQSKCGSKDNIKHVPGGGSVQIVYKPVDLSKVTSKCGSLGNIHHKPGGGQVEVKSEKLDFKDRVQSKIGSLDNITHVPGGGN
Sequence of bovine serum albumin (BSA) (P02769 25-607): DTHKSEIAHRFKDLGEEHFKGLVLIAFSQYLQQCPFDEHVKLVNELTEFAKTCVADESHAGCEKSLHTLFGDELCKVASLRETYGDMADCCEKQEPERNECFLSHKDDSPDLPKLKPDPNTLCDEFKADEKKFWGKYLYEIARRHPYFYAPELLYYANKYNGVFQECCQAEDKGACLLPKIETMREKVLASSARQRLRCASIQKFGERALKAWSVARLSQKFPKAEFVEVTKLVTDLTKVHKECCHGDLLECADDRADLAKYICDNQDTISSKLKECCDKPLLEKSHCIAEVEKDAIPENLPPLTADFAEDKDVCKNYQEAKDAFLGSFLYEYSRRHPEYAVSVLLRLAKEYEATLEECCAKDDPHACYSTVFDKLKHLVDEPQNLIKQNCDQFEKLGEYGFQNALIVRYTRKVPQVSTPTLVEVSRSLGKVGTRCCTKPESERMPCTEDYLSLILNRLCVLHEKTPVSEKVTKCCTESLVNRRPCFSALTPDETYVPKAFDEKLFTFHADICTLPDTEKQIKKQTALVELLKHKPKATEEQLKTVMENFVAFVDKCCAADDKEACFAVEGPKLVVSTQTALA
T2 sequence (P05067 672-711 limits assumed): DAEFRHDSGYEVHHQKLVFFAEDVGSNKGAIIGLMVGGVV

Molecule | λem: Maximum emission wavelength [1] | λex: Maximum excitation wavelength [1] | Stokes shift [1] | SIaβ: selectivity index = fluorescence intensity of probe bound to Tau aggregate / bound to Aβ aggregate [2] | SItaumono: selectivity index, tau aggregate versus tau monomer [2] | FItau: fold increase = fluorescence intensity of probe bound to tau aggregate / probe (free) [2] | FIAβ: fold increase = fluorescence intensity of probe bound to Aβ aggregate / probe (free) [3] | FIBSA: fold increase = fluorescence intensity of probe bound to BSA / probe (free) [4] | selectivity for tau aggregates over amyloid aggregates [2] | reactivity to BSA ([4]; in words)
COc1ccc2nc(/C=C/C=C/c3ccc([N+](=O)[O-])nc3)ccc2c1 [Compound 15e, 6-methoxy-2-((1E,3E)-4-(6-nitropyridin-3-yl)buta-1,3-dien-1-yl)quinolone] | 587 nm | 389 nm | 198 nm | 2.2 | 4.5 | 0.95 | 0.44 | 0.17 | – | –
COc1ccc2nc(/C=C/C=C/c3cccc(Cl)c3)ccc2c1 [Compound 15f, 6-methoxy-2-((1E,3E)-4-(3-chlorophenyl)buta-1,3-dien-1-yl)quinolone] | 415 nm | 360 nm | 55 nm | 1.2 | 4.4 | 3.91 | 3.27 | 1.75 | – | –
COc1ccc2nc(/C=C/C=C/c3cccc([N+](=O)[O-])c3)ccc2c1 [Compound 15g, 6-methoxy-2-((1E,3E)-4-(3-nitrophenyl)buta-1,3-dien-1-yl)quinolone] | 452 nm | 361 nm | 91 nm | 5.8 | 3.7 | 3.42 | 0.58 | 1.33 | 5.8 times | –
COc1ccc2nc(/C=C/C=C/c3ccc(F)cc3F)ccc2c1 [Compound 15h, 6-methoxy-2-((1E,3E)-4-(2.4-difluorophenyl)buta-1,3-dien-1-yl)quinolone] | 415 nm | 360 nm | 55 nm | 1.5 | 2.8 | 2.35 | 1.56 | 0.70 | – | –
CNc1ccc(/C=C/C=C/C(=O)c2ccc3cc(OC)ccc3n2)cc1 [Compound 16b, (2E,4E)-1-(6-methoxyquinolin-2-yl)-5-(4-(methylamino)phenyl)penta-2,4-dien-1-one] | 714 nm | 475 nm | 239 nm | 1.0 | 2.1 | 9.22 | 9.45 | 56.71 | – | –
COc1ccc2nc(C(=O)/C=C/C=C/c3ccc(N(C)C)cc3)ccc2c1 [Compound 16c, (2E,4E)-5-(4-(dimethylamino)phenyl)-1-(6-methoxyquinolin-2-yl)penta-2,4-dien-1-one] | 678 nm | 450 nm | 228 nm | 1.2 | 1.7 | 1.71 | 1.43 | 1.29 | – | –
COc1ccc2nc(C(=O)/C=C/C=C/c3ccc(N(C)C)nc3)ccc2c1 [Compound 16d, (2E,4E)-5-(6-(dimethylamino)pyridin-3-yl)-1-(6-methoxyquinolin-2-yl)penta-2,4-dien-1-one] | 637 nm | 425 nm | 212 nm | 3.5 | 3.9 | 3.82 | 1.10 | 1.26 | 3.5 times | –
COc1ccc2nc(C(=O)/C=C/C=C/c3ccc(N(C)CCO)cc3)ccc2c1 [Compound 16e] | 658 nm | 436 nm | 222 nm | 2.5 | 3.0 | 3.90 | 1.55 | 1.59 | – | –
Thioflavin S [reference compound] | 451 nm | 347 nm | 104 nm | 0.8 | 4.3 | 15.32 | 19.95 | 7.133 | – | high reactivity
